For 49 compounds, IC50 results are on record in ChEMBL document CHEMBL5729561, “Compounds and uses thereof” (2023).

The experiment is described as follows: On day 0 cells were seeded in 30 μL media into each well of 384-well cell culture plates. The seeding density was 8000 cells/well. On day 1, cells were treated with 30 nL DMSO or 30 nL of 3-fold serially DMSO-diluted compounds (10 points in duplicates with 1 μM as final top dose). Subsequently plates were incubated for 6 hours in a standard tissue culture incubator and equilibrated at room temperature for 15 minutes. Nanoluciferase activity was measured by adding 15 μL of freshly prepared Nano-Glo Luciferase Assay Reagent (Promega N1130), shaking the plates for 10 minutes and reading the bioluminescence using an EnVision reader. It counts as cell-based.
Broadly, the IC50 is the point on the concentration scale where inhibition reaches its midpoint. A higher IC50 goes with weaker potency. For `COc1cc(-c2cn(C)c(=O)c3cnccc23)cc(OC)c1CN1CCC2(CC1)CN(C(=O)CCOCCOc1cccc3c1C(=O)N(C1CCC(=O)NC1=O)C3=O)C2` (centres undefined), the concentration for half-maximal inhibition (IC50) entry is “in the range around 55 nM”.

Regarding `COc1cc(-c2cn(C)c(=O)c3cnccc23)cc(OC)c1ON1CC2(CC(NC(=O)CCOCCOc3ccc4c(c3)C(=O)N(C3CCC(=O)NC3=O)C4=O)C2)C1` (centres undefined), the IC50 entry was “in the range around 550 nM”.

In turn, `COc1cc(-c2cn(C)c(=O)c3cnccc23)cc(OC)c1CN(C)C(=O)CCCCN1CCOC2(CCN(c3ccc4c(c3)C(=O)N(C3CCC(=O)NC3=O)C4=O)CC2)C1` (centres undefined) showed an IC50 of under 10 nM.

Consider `COc1cc(-c2cn(C)c(=O)c3cnccc23)cc(OC)c1CN1CCC2(C[C@@H]2NC(=O)CCOCCOc2cccc3c2C(=O)N(C2CCC(=O)NC2=O)C3=O)C1` (some centres undefined), for which the IC50 entry was “in the range around 550 nM”.

Regarding `COc1cc(-c2cn(C)c(=O)c3cnccc23)cc(OC)c1CN1CCC(OC2CCN(C(=O)CCOCCOc3ccc4c(c3)C(=O)N(C3CCC(=O)NC3=O)C4=O)CC2)CC1` (centres undefined), the IC50 is under 10 nM.

For the compound `COc1cc(-c2cn(C)c(=O)c3cnccc23)cc(OC)c1CN1CC2(CCC2NC(=O)CCOCCOc2cccc3c2C(=O)N(C2CCC(=O)NC2=O)C3=O)C1` (centres undefined), the IC50 is over 1000 nM.

Regarding `COc1cc(-c2cn(C)c(=O)c3cnccc23)cc(OC)c1CN1CCC2(C[C@H]2NC(=O)CCOCCOc2cccc3c2C(=O)N(C2CCC(=O)NC2=O)C3=O)C1` (some centres undefined), the IC50 entry is “in the range around 55 nM”.

For the compound `COc1cc(-c2cn(C)c(=O)c3cnccc23)cc(OC)c1CNCCOCC(=O)N1CC(COc2ccc3c(c2)C(=O)N(C2CCC(=O)NC2=O)C3=O)C1` (centres undefined), the half-inhibitory concentration (IC50) entry was “in the range around 550 nM”.

Take `COc1cc(-c2cn(C)c(=O)c3cnccc23)cc(OC)c1CN1CCC2CCN(C(=O)CCOCCOc3ccc4c(c3)C(=O)N(C3CCC(=O)NC3=O)C4=O)CC21` (centres undefined): the half-maximal inhibitory concentration (IC50) was under 10 nM.

Consider `COc1cc(-c2cn(C)c(=O)c3cnccc23)cc(OC)c1CN(C)CCc1cn(CCCCOc2ccc3c(c2)C(=O)N(C2CCC(=O)NC2=O)C3=O)nn1` (centres undefined), for which the 50% inhibitory concentration (IC50) entry was “in the range around 55 nM”.

As to `COc1cc(-c2cn(C)c(=O)c3cnccc23)cc(OC)c1CN1CCC2(CCN(C(=O)CCOCCOc3ccc4c(c3)C(=O)N(C3CCC(=O)NC3=O)C4=O)CC2)C1` (centres undefined), the IC50 result was “in the range around 55 nM”.

Regarding `COc1cc(-c2cn(C)c(=O)c3cnccc23)cc(OC)c1CN1CCC2CCN(C(=O)CCOCCOc3cccc4c3C(=O)N(C3CCC(=O)NC3=O)C4=O)CC21` (centres undefined), the 50% inhibitory concentration (IC50) result is “in the range around 55 nM”.

Compound `COc1cc(-c2cn(C)c(=O)c3cnccc23)cc(OC)c1CN(C)NC(=O)CCCCC(=O)NC12CC(Nc3cccc4c3C(=O)N(C3CCC(=O)NC3=O)C4=O)(C1)C2` (centres undefined) came in with a 50% inhibitory concentration (IC50) of under 10 nM.

Take `COc1cc(-c2cn(C)c(=O)c3cnccc23)cc(OC)c1CN1CCC(C2CCN(C(=O)CCOCCOc3cccc4c3C(=O)N(C3CCC(=O)NC3=O)C4=O)C2)CC1` (centres undefined): the IC50 entry is “in the range around 55 nM”.

Regarding `COc1cc(-c2cn(C)c(=O)c3cnccc23)cc(OC)c1CN1CCC12CN(C(=O)CCOCCOc1ccc3c(c1)C(=O)N(C1CCC(=O)NC1=O)C3=O)C2` (centres undefined), the IC50 entry was “in the range around 550 nM”.

With `COc1cc(-c2cn(C)c(=O)c3cnccc23)cc(OC)c1CN1CCC2(C[C@@H]2NC(=O)CCOCCOc2ccc3c(c2)C(=O)N(C2CCC(=O)NC2=O)C3=O)C1` (some centres undefined), the IC50 entry is “in the range around 55 nM”.

Compound `COc1cc(-c2cn(C)c(=O)c3cnccc23)cc(OC)c1CN1CC2CN(C(=O)CCOCCOc3ccc4c(c3)C(=O)N(C3CCC(=O)NC3=O)C4=O)CCC21` (centres undefined) came in with an IC50 of under 10 nM.

For `COc1cc(-c2cn(C)c(=O)c3cnccc23)cc(OC)c1CN(C)CC(=O)NCCCCN1CCOC2(CCN(c3ccc4c(c3)C(=O)N(C3CCC(=O)NC3=O)C4=O)CC2)C1` (centres undefined), the half-inhibitory concentration (IC50) was under 10 nM.

As for `COc1cc(-c2cn(C)c(=O)c3cnccc23)cc(OC)c1CN1CCC12CCN(C(=O)CCOCCOc1cccc3c1C(=O)N(C1CCC(=O)NC1=O)C3=O)C2` (centres undefined), the 50% inhibitory concentration (IC50) result is “in the range around 550 nM”.

`COc1cc(-c2cn(C)c(=O)c3cnccc23)cc(OC)c1CN1CCC(OC2CCN(C(=O)CCOCCOc3ccc4c(c3)C(=O)N(C3CCC(=O)NC3=O)C4=O)C2)CC1` (centres undefined): the concentration for half-maximal inhibition (IC50) is under 10 nM.

In the case of `COc1cc(-c2cn(C)c(=O)c3cnccc23)cc(OC)c1CN1CCC(C2CCN(C(=O)CCOCCOc3ccc4c(c3)C(=O)N(C3CCC(=O)NC3=O)C4=O)C2)CC1` (centres undefined), the IC50 was under 10 nM.

For `COc1cc(-c2cn(C)c(=O)c3cnccc23)cc(OC)c1CN(C)Cc1cn(CCOc2ccc3c(c2)C(=O)N(C2CCC(=O)NC2=O)C3=O)nn1` (centres undefined), the IC50 result was “in the range around 550 nM”.

For `COc1cc(-c2cn(C)c(=O)c3cnccc23)cc(OC)c1CN1CCC(OC2CCN(C(=O)CCOCCOc3cccc4c3C(=O)N(C3CCC(=O)NC3=O)C4=O)C2)CC1` (centres undefined), the IC50 result is “in the range around 55 nM”.

Regarding `COc1cc(-c2cn(C)c(=O)c3cnccc23)cc(OC)c1CN1CC2(CCN(C(=O)CCOCCOc3cccc4c3C(=O)N(C3CCC(=O)NC3=O)C4=O)CC2)C1` (centres undefined), the IC50 result was “in the range around 550 nM”.

The compound `COc1cc(-c2cn(C)c(=O)c3cnccc23)cc(OC)c1CN1CCC2(CCN(C(=O)CCOCCOc3cccc4c3C(=O)N(C3CCC(=O)NC3=O)C4=O)C2)C1` (centres undefined) showed an IC50 of under 10 nM.

For `COc1cc(-c2cn(C)c(=O)c3cnccc23)cc(OC)c1CN1CCC(COC2CCN(C(=O)CCOCCOc3cccc4c3C(=O)N(C3CCC(=O)NC3=O)C4=O)C2)CC1` (centres undefined), the half-maximal inhibitory concentration (IC50) result was “in the range around 55 nM”.

As to `COc1cc(-c2cn(C)c(=O)c3cnccc23)cc(OC)c1CN1CC2(CC(NC(=O)CCOCCOc3cccc4c3C(=O)N(C3CCC(=O)NC3=O)C4=O)C2)C1` (centres undefined), the IC50 result was “in the range around 55 nM”.

With `COc1cc(-c2cn(C)c(=O)c3cnccc23)cc(OC)c1CN(C)Cc1cn(CCCCOc2ccc3c(c2)C(=O)N(C2CCC(=O)NC2=O)C3=O)nn1` (centres undefined), the IC50 result was “in the range around 55 nM”.

Consider `COc1cc(-c2cn(C)c(=O)c3cnccc23)cc(OC)c1CN1CCC12CCN(C(=O)CCOCCOc1ccc3c(c1)C(=O)N(C1CCC(=O)NC1=O)C3=O)C2` (centres undefined), for which the half-inhibitory concentration (IC50) result was “in the range around 550 nM”.

As to `COc1cc(-c2cn(C)c(=O)c3cnccc23)cc(OC)c1CN1CC2(CCC2NC(=O)CCOCCOc2ccc3c(c2)C(=O)N(C2CCC(=O)NC2=O)C3=O)C1` (centres undefined), the IC50 entry is “in the range around 550 nM”.

`COc1cc(-c2cn(C)c(=O)c3cnccc23)cc(OC)c1CN1CCC2(C1)CN(C(=O)CCOCCOc1ccc3c(c1)C(=O)N(C1CCC(=O)NC1=O)C3=O)C2` (centres undefined): the IC50 entry is “in the range around 55 nM”.

With `COc1cc(-c2cn(C)c(=O)c3cnccc23)cc(OC)c1CN1CC2(CCN(C(=O)CCOCCOc3ccc4c(c3)C(=O)N(C3CCC(=O)NC3=O)C4=O)C2)C1` (centres undefined), the concentration for half-maximal inhibition (IC50) was under 10 nM.

Take `COc1cc(-c2cn(C)c(=O)c3cnccc23)cc(OC)c1CN1CC(CCNC(=O)CCOCCOc2ccc3c(c2)C(=O)N(C2CCC(=O)NC2=O)C3=O)C1` (centres undefined): the IC50 result was “in the range around 550 nM”.

Turning to `COc1cc(-c2cn(C)c(=O)c3cnccc23)cc(OC)c1CN(C)Cc1cn(CCCOc2ccc3c(c2)C(=O)N(C2CCC(=O)NC2=O)C3=O)nn1` (centres undefined), the half-maximal inhibitory concentration (IC50) entry was “in the range around 550 nM”.

For `COc1cc(-c2cn(C)c(=O)c3cnccc23)cc(OC)c1ON1CCC2(CCN(C(=O)CCOCCOc3cccc4c3C(=O)N(C3CCC(=O)NC3=O)C4=O)CC2)C1` (centres undefined), the IC50 was under 10 nM.

Take `COc1cc(-c2cn(C)c(=O)c3cnccc23)cc(OC)c1CN1CCC2(C1)CN(C(=O)CCOCCOc1cccc3c1C(=O)N(C1CCC(=O)NC1=O)C3=O)C2` (centres undefined): the 50% inhibitory concentration (IC50) result is “in the range around 55 nM”.

Regarding `COc1cc(-c2cn(C)c(=O)c3cnccc23)cc(OC)c1CN1CCC12CN(C(=O)CCOCCOc1cccc3c1C(=O)N(C1CCC(=O)NC1=O)C3=O)C2` (centres undefined), the IC50 entry is “in the range around 550 nM”.

As to `COc1cc(-c2cn(C)c(=O)c3cnccc23)cc(OC)c1CN1CCC(COC2CCN(C(=O)CCOCCOc3ccc4c(c3)C(=O)N(C3CCC(=O)NC3=O)C4=O)C2)CC1` (centres undefined), the IC50 was under 10 nM.

On to `COc1cc(-c2cn(C)c(=O)c3cnccc23)cc(OC)c1CN1CCC2(CCN(C(=O)CCOCCOc3ccc4c(c3)C(=O)N(C3CCC(=O)NC3=O)C4=O)C2)C1` (centres undefined), for which the half-inhibitory concentration (IC50) result was “in the range around 55 nM”.

Regarding `COc1cc(-c2cn(C)c(=O)c3cnccc23)cc(OC)c1CN(C)C1CCC12CCN(C(=O)CCOCCOc1cccc3c1C(=O)N(C1CCC(=O)NC1=O)C3=O)CC2` (centres undefined), the concentration for half-maximal inhibition (IC50) entry is “in the range around 55 nM”.

With `COc1cc(-c2cn(C)c(=O)c3cnccc23)cc(OC)c1CN1CC2C1CCN2C(=O)CCOCCOc1cccc2c1C(=O)N(C1CCC(=O)NC1=O)C2=O` (centres undefined), the IC50 is under 10 nM.

Consider `COc1cc(-c2cn(C)c(=O)c3cnccc23)cc(OC)c1CN(C)CCc1cn(CCCOc2ccc3c(c2)C(=O)N(C2CCC(=O)NC2=O)C3O)nn1` (centres undefined), for which the IC50 result is “in the range around 550 nM”.

On to `COc1cc(-c2cn(C)c(=O)c3cnccc23)cc(OC)c1CN1CCC2(CC1)CN(C(=O)CCOCCOc1ccc3c(c1)C(=O)N(C1CCC(=O)NC1=O)C3=O)C2` (centres undefined), for which the IC50 result is “in the range around 55 nM”.

Take `COc1cc(-c2cn(C)c(=O)c3cnccc23)cc(OC)c1CN1CCC2(C[C@H]2NC(=O)CCOCCOc2ccc3c(c2)C(=O)N(C2CCC(=O)NC2=O)C3=O)C1` (some centres undefined): the IC50 result is “in the range around 550 nM”.

Regarding `COc1cc(-c2cn(C)c(=O)c3cnccc23)cc(OC)c1CN1CCC2(CC1)CC(NC(=O)CCOCCOc1ccc3c(c1)C(=O)N(C1CCC(=O)NC1=O)C3=O)C2` (centres undefined), the 50% inhibitory concentration (IC50) result was “in the range around 55 nM”.

On to `COc1cc(-c2cn(C)c(=O)c3cnccc23)cc(OC)c1CN1CC2C1CCN2C(=O)CCOCCOc1ccc2c(c1)C(=O)N(C1CCC(=O)NC1=O)C2=O` (centres undefined), for which the IC50 is under 10 nM.

Consider `COc1cc(-c2cn(C)c(=O)c3cnccc23)cc(OC)c1CN1CC2(CCN(C(=O)CCOCCOc3ccc4c(c3)C(=O)N(C3CCC(=O)NC3=O)C4=O)CC2)C1` (centres undefined), for which the IC50 entry was “in the range around 55 nM”.

For the compound `COc1cc(-c2cn(C)c(=O)c3cnccc23)cc(OC)c1CN(C)CCc1cn(CCOc2ccc3c(c2)C(=O)N(C2CCC(=O)NC2=O)C3=O)nn1` (centres undefined), the half-inhibitory concentration (IC50) entry was “in the range around 55 nM”.

For `COc1cc(-c2cn(C)c(=O)c3cnccc23)cc(OC)c1CN(C)CC1CC2(CCN(C(=O)CCOCCOc3cccc4c3C(=O)N(C3CCC(=O)NC3=O)C4=O)CC2)CO1` (centres undefined), the IC50 result is “in the range around 55 nM”.
